Marks after values point to notes of the source that are not given here.
Key:
in vitro [1] = settings: human, s9
[2] = system: human colon carcinoma HCT-116 xenograft; assay: HCT-116 xenograft in nude mice; settings: for Tumor relapse during follow-up to D200: Fludelone 20 and 30 mg/kg; for Tumor free following the cessation of treatment: mouse, in vivo
RPMI8226 myeloma cells = assay: Pulse exposure, washout and cell count; format: cell-based, human
[3] = system: lymphoma lines (SKIDLBCL and RL); assay: XTT cell proliferation, lymphoma lines; format: cell-based, human
OPM-2 = assay: XTT cell growth inhibition, OPM-2; format: cell-based; settings: Homo sapiens, OPM-2; Myeloma; XTT tetrazonium assay; read-out: IC50 (nM), OPM-2
HS-27A = assay: XTT cell growth inhibition, HS-27A; format: cell-based; settings: Homo sapiens, Marrow stroma, XTT tetrazonium assay, read-out: IC50 (nM), HS-27A
[4] = system: human lung carcinoma xenograft (A549); assay: A549 xenograft in nude mice
RL = assay: XTT cell growth inhibition, RL; format: cell-based; settings: Homo sapiens, Lymphoma, XTT tetrazonium assay, read-out: IC50 (nM), RL
[5] = system: myeloma cell lines (RPMI8226, CAG); assay: XTT cell proliferation, myeloma cell lines; format: cell-based, human
[6] = system: paclitaxel resistant human lung carcinoma A549/Taxol xenograft; settings: 20 mg/kg, Q2Dx7, 6 hr-i.v. infusion; cited from earlier work
[7] = system: human colon carcinoma HCT-116 xenograft; settings: 96 h
CAG myeloma cell lines [8] = assay: Cell cycle analysis (propidium iodide DNA staining), CAG; format: cell-based, human; settings: 31.25 nM
Source text: CAG myeloma cell lines were used.

MRC-5 = assay: XTT cell growth inhibition, MRC-5; format: cell-based, human; settings: MRC5; Embryonic lung fibroblasts (human); XTT tetrazonium assay; read-out: IC50 (nM), MRC-5
[9] = system: human xenografts in nude mice, such as MX-1; design: Relative therapuetic index at MTD: key to the marks not given beside the values
[10] = system: human mammary carcinoma MX-1 xenograft; assay: MX-1 xenograft in nude mice; settings: for Body weight on the 16th day after treatment, % of the pretreatment control: Q2Dx6
CAG myeloma cell lines [11] = assay: Annexin V staining, CAG; format: cell-based, human; settings: 24 hours treatment
Source text: In early apoptotic cells, the membrane phospholipids phosphatidylserine (PS) is translocated from the inner to the outer leaflet of the plasma membrane, thereby exposing PS to the external cellular environment. Annexin V is a 35-36 kD Ca^2+ dependent phospholipids-binding protein that has a high affinity for PS, and binds to cells with exposed PS. In conjunction with a vital dye such as 7-amino-actinomycin (7-AAD) staining dead cells, this assay allows to identify early apoptotic cells. […] Note that X-axis is Annexin staining and Y-axis is 7-AAD staining.

H929 = assay: XTT cell growth inhibition, H929; format: cell-based; settings: Homo sapiens, NCI-H929; Myeloma; XTT tetrazonium assay; read-out: IC50 (nM), H929
caspase 3 = assay: Caspase 3 activation by Western blot; format: cell-based, human; settings: myeloma cells
Source text: It is not clear whether caspase is involved in this process. Firstly, we investigated the activation of caspase 3, an effector caspase in the caspase pathway, in myeloma cells, by Western blot. […] Immunohistochemical staining of CAG myeloma cells using antibody specific to cleaved caspase-3 was used to show cytoplasmic and perinuclear localization features in apoptotic cells. […] Secondly, we attempted to assay the activity of caspase 8 and 9, initiator caspase in the caspase pathway, by fluorometric method. […] Note that increased caspase 9 activity was more prominent than caspase 8. The signals triggering the activation of caspase 8 or 9 are actively under investigation.

[12] = Octanol-water partition (POW) number by HPLC; format: physicochemical; settings: HPLC estimate, pH 7.4 buffer; read-out: Lipophilicity octanol/water partition (POW)
MDA MB435 = assay: XTT cell growth inhibition, MDA MB435; format: cell-based; settings: Homo sapiens, MDA-MB-435; Breast Ca; XTT tetrazonium assay; read-out: IC50 (nM), MDA MB435
in vitro [13] = settings: mouse, plasma
Procedure: Stability of epothilones in mouse and in human liver S9 fraction. The stability study was carried out with a fully automated HPLC system which consisted of a Prospekt-2 (Spark Holland, Netherlands) sample preparation system and an Agilent 1100 HPLC system. Briefly, the Prospekt 2 picked up a C8 extraction cartridge and washed it with acetonitrile and water. The Agilent autosampler, set at 37° C., picked up 20 μl of the sample, loaded it onto the cartridge, washed it with water, then the Prospekt-2 diverted the mobile phase stream through the extraction cartridge onto the analytical column, Reliance Stable Bond C8 4×80 mm with guard column (MacMod, Chadds Ford, Pa.) and the eluent was monitored at 250 nm. […] Sample preparation involved the addition of equal volumes of plasma to PBS for a total volume of 300-400 μl, filtered, and the addition of 0.5-2 μl of the substrate (20 mM) to achieve about 30-50 mAU at 250 nm in the HPLC analysis. For pooled human liver microsome S9 fraction (Xeno Tech, Lenex, Kans.), 20 μl (400 μg) or S9 fraction was mixed with 280 μl of PBS then proceeded as above. The sampling period was controlled by the autosampler and peak area data were collected to compare the rate of disappearance of the parent compound.
Stability of epothilones in mouse and in human liver S9 fraction: The stability study was carried out with a fully automated HPLC system which consisted of a Prospekt-2 (Spark Holland, Netherlands) sample preparation system and an Agilent 1100 HPLC system. Briefly, the Prospekt 2 picked up a C8 extraction cartridge and washed it with acetonitrile and water. The Agilent autosampler, set at 37° C., picked up 20 μl of the sample, loaded it onto the cartridge, washed it with water, then the Prospekt-2 diverted the mobile phase stream through the extraction cartridge onto the analytical column, Reliance Stable Bond C8 4×80 mm with guard column (MacMod, Chadds Ford, Pa.) and the eluent was monitored at 250 nm. […] Sample preparation involves the addition of equal volumes of plasma to PBS for a total volume of 400 μl, filtered, and the addition of 0.5-2 μl of the substrate (20 mM) to achieve about 30-50 mAU at 250 nm in the HPLC analysis. For pooled human liver microsome S9 fraction (Xeno Tech, Lenex, Kans.), 20 μl (400 μg) or S9 fraction was mixed with 280 μl of PBS then proceeds as above. The sampling period was controlled by the autosampler and peak area data were collected to compare the rate of disappearance of the parent compound.

C/C(=C\c1csc(C)n1)[C@@H]1C/C=C(/C(F)(F)F)C/C=C/[C@H](C)[C@H](O)[C@@H](C)C(=O)C(C)(C)[C@@H](O)CC(=O)O1 [Compound 29, 26-trifluoro-trans-9,10-dehydro-12,13-desoxyepothilone B]
half-life (in vitro [1]): 10.5 ± 2.3 h | Maximal body weight loss without lethality ([2]; 30 mg/kg, end of the 2nd cycle (D29)): 30% | Tumor relapse during follow-up to D200 ([2]; Taxol 20 mg/kg): no tumor relapse | Tumor relapse during follow-up to D200 ([2]; Taxol 20 mg/kg, listed as F3-deH-dEpoB): no tumor relapse in 4 out of 4 mice on D200 | Tumor disappearance (mice) ([2]; Q2Dx4, 6 hr-i.v. infusion for 3 cycles, F3-deH-dEpoB 20 and 30 mg/kg, Taxol 20 mg/kg): 4 out of 4 | Tumor free following the cessation of treatment ([2]; listed as 26-trifluoro-9,10-trans-dehdyro-epothilone D): over 5.2 months | Tumor free following the cessation of treatment ([2]; listed as Fludelone): over 5.3 months | Decrease of the number of cells from input (RPMI8226 myeloma cells): ~50% | Decrease of tumor cell numbers (RPMI8226 myeloma cells): 50% | Cell death after pulse exposure (RPMI8226 myeloma cells; 24 hrs exposure): all cells being dead by 48 hrs | Inhibitory doses in two NHL lines relative to doses effective in MM [3]: 5-10 fold | IC50 ([3]; Homo sapiens, XTT): 60 to 80 nM | IC50 (OPM-2): 8.2 ± 2.2 nM | IC50 (HS-27A): 102 ± 8 nM | Body weight decrease without lethality ([4]; 25 mg/kg, Q2DX6, twice): ≤ 35% | Tumor eradication ([4]; 29: after two more doses, dEpoB: 30 mg/kg, Q2Dx6): 4 of the 4 | IC50 (RL): 80 ± 11 nM | Potency relative to dEpoB on MM cell lines [5]: ~5 fold | IC50 ([5]; Homo sapiens, RPMI-8226, read-out: IC50, myeloma cell lines (RPMI8226, CAG)): 7.6 to 36.7 nM | Effect on A549/Taxol xenograft (recent report) [6]: complete tumor growth suppression but failed to achieve tumor disappearance | Cell kill [7]: > 11.6 log | Cell cycle arrest (CAG myeloma cell lines [8]): absolutely blocked cell cycle at G2M phase | IC50 (MRC-5): 7.4 ± 2.7 nM | Maximal b.w. % drop without death ([9]; mouse, in vivo): 33% | Relative therapuetic index at MTD ([9]; mouse, in vivo): +++++ | Curative therapeutic dose range ([9]; mouse, in vivo, iv): 10 to 30 mg/kg | Optimal dose for i.v. infusion ([9]; mouse, in vivo, iv): 20 to 30 mg/kg | Therapeutic dose regimen for Q2D 6 hr-iv infusion ([9]; mouse, in vivo, iv): 10 to 30 mg/kg | Optimal dose for the oral administration ([9]; oral): 20 mg/kg, QD or 30 mg/kg Q2D | Body weight gain during the last three doses ([10]; 10 mg/kg, Q2DX12): 6% | Maximal body weight decrease ([10]; 10 mg/kg, Q2DX12): 12% | Tumor free after Q2Dx6 6 hr-iv. infusion (mice) ([10]; 20 mg/kg): four out of four | Therapeutic outcome in MX-1 xenograft model ([10]; 20 mg/kg and 30 mg/kg, Q2Dx6, 6 hour infusions): curative | Time for body weight to return to pretreatment control level after suspension of treatment ([10]; 20 mg/kg or 30 mg/kg Q2Dx6, i.v.-6 hr infusion): 12 to 18 days | Body weight on the 16th day after treatment, % of the pretreatment control ([10]; 20 mg/kg): 109% | Reappearance of the tumor on the 20th day after stopping treatment ([10]; 20 mg/kg, Q2Dx6, 6 hour infusion): no reappearance | Tumor reappearance on 27th day after stopping treatment (mice) ([10]; 20 mg/kg, Q2Dx6, 6 hr iv infusion): 2 out of 4 | Tumor reappearance on 27th day after stopping treatment (mice) ([10]; 20 mg/kg, Q2Dx6, 6 hr iv infusion, listed as 26-trifluoro-9,10-dehydro-12,13-dexoxy-epothilone B): 2/4 | Transient drop in body weight ([10]; 20 mg/kg, Q2Dx6, 6 hr. iv infusion): up to 26% | Decrease in body weight without lethality ([10]; 30 mg/kg): 27% | Body weight on the 16th day after treatment, % of the pretreatment control ([10]; 30 mg/kg): 98% | Tumor disappearance earlier than the 20 mg/kg dosage ([10]; 30 mg/kg, Q2Dx6, 6 hour iv infusion): 2 to 3 days | Relapse after suspension of treatment ([10]; 30 mg/kg, Q2Dx6, 6 hr iv infusion): absence of any relapse for over two months | Maximal tolerated dose ([10]; Q2Dx6, 6 hour infusions): ~30 mg/kg | Cell kill ([10]; assuming a tumor doubling time of 4 days): > 8.5 log | Tumor relapse after cessation of treatment ([10]; extra large MX-1, 25 mg/kg Q3Dx5 then Q3Dx4): No relapse was observed on D180 | Relapse (49 days after stopping treatment) ([10]; female nude mice, large MX-1, 30 mg/kg orally): no relapse on D115 | Tumor disappearance ([10]; female nude mice, large MX-1, 30 mg/kg orally Q2Dx7 then Q2Dx9): All three mice's tumor disappeared on D40, 45 and 48 | Doses required for MX-1 tumor disappearance ([10]; mouse, in vivo): nine | Duration of MX-1 tumor disappearance ([10]; mouse, in vivo): 64 days | Mice relapsed on day 10 after suspension of treatment ([10]; mouse, in vivo): 0/4 | Mouse tumors disappeared, large MX-1 tumors (0.5 g) ([10]; mouse, in vivo): 4/4 | Relapse after suspension of treatment ([10]; mouse, in vivo): no relapse after 62 days | Tumor disappeared during the resting period (mice) ([10]; mouse, in vivo): 2 out of 5 | Tumor free after Q2Dx6 6 hr-iv. infusion (mice) ([10]; mouse, in vivo): 4/4 | Tumor reappeared on day 10 after administration (mice) ([10]; mouse, in vivo): 0/4^[b] | Tumor relapse after cessation of treatment ([10]; mouse, in vivo): no tumor relapse in all 5 animals on D165 | Tumor shrinkage during the resting period of 9 days (D34-D43) ([10]; mouse, in vivo): > 99.3% | Tumor shrinkage ([10]; mouse, in vivo, iv, 25 mg/kg): > 97.4% | Tumor disappearance (mice) ([10]; mouse, in vivo, po, 30 mg/kg): 2 out of 4 | Tumor disappearance after additional two doses (mice) ([10]; mouse, in vivo, po, 30 mg/kg): 4 out of 4 | Tumor free following the cessation of treatment ([10]; mouse, in vivo, listed as 26-trifluoro-9,10-trans-dehdyro-epothilone D): 3.8 months | Tumor free following the cessation of treatment ([10]; mouse, in vivo, listed as Fludelone): 4.3 months | Apoptosis (Annexin V / 7-AAD) (CAG myeloma cell lines [11]): majority of cells either enter apoptosis or are dead | IC50 (H929): 9.2 ± 1.9 nM | Cleaved caspase 3 (Western blot) (caspase 3): increased 17 kd cleaved caspase 3 | chromatographic logP [12]: 3.3 | IC50 (MDA MB435): 5.8 ± 2.8 nM | half-life (in vitro [13]): 3.53 ± 1.47 h

Source: patent publication US7875638B2, “Synthesis of epothilones, intermediates thereto, analogues and uses thereof” (Sloan-Kettering Institute for Cancer Research, priority 2002, dated 2011)
